Experimental data from PMC7139549, “TLD1433 Photosensitizer Inhibits Conjunctival Melanoma Cells in Zebrafish Ectopic and Orthotopic Tumour Models” (Cancers, 2020).
Read-outs that look alike come from different tables or passages of the source.

Tests used:
[1] = system: CM2005.1 conjunctival melanoma cell line; assay: SRB cell viability assay, CM2005.1; assay type: cell-based, Human
Experimental: TLD1433 is known to generate reactive oxygen species (ROS) with high quantum efficacy in many cancer cell lines. However, there is no report of the in vitro toxicity of this compound in eye melanoma (UM) cell lines. We determined the cell viability of three conjunctival melanoma cell lines (CRMM1, CRMM2 and CM2005.1), and three uveal melanoma cell lines (OMM1, OMM2.5, MEL270) in the presence of TLD1433, both in the dark or under green light irradiation (21 mW/cm^2, 19 J/cm^2, 520 nm, 15 min), and compared this viability to epidermoid carcinoma A431 and cutaneous melanoma A375 cell lines under the same conditions. The protocol used was based on previous work from the Bonnet group, and differed slightly from recommendations from McFarland et al.. […] The effective concentration (EC50) values, i.e., the concentration required to reduce cell viability by 50% compared to untreated wells, were assessed by fitting the dose-response curves with a Hill equation. The phototoxicity index (PI), defined as the ratio of the dark EC50 to the light EC50, was also calculated and represents the amplification of TLD1433 activity with a light trigger. […]
Figure 2 Cell viability after TLD1433 treatment of eight tumour cell lines (CRMM1, CRMM2, CM2005.1, OMM1, OMM2.5, MEL270, A431, A375). […] The absorbance of Sulforhodamine B in solution was measured at 520 nm. […]
At day 0, cells were detached using 1mL of trypsin, resuspended in 4 mL of media and transferred to a 15 mL corning falcon tube. Cells were counted using trypan blue and BioRad® TC20™ automated cell counter (Figure 11). Dilutions of 6000 (CRMM1), 6000 (CRMM2), 8000 (CM2005.1), 6000 (OMM1), 6000 (OMM2.5), 6000 (MEL270) 8000 (A431), and 4000 (A375) cells/well were calculated from each cell suspension at a final volume of 6 mL using the following formula: Vc=(Vt×10C)/Lc where Vt = total volume of solution, C = number of cells per well/per 100 μL and Lc = live cells count (cells/mL). […] Next day, the dye was dissolved using Tri-base (0.25%) and absorbance of SRB at 510 nm was recorded from each well using a Tecan plate reader. […]

CM cells = assay: SRB cell viability assay, CM cells; assay type: cell-based, Human; conditions: dark EC50 to light EC50
Experimental: TLD1433 is known to generate reactive oxygen species (ROS) with high quantum efficacy in many cancer cell lines. However, there is no report of the in vitro toxicity of this compound in eye melanoma (UM) cell lines. We determined the cell viability of three conjunctival melanoma cell lines (CRMM1, CRMM2 and CM2005.1), and three uveal melanoma cell lines (OMM1, OMM2.5, MEL270) in the presence of TLD1433, both in the dark or under green light irradiation (21 mW/cm^2, 19 J/cm^2, 520 nm, 15 min), and compared this viability to epidermoid carcinoma A431 and cutaneous melanoma A375 cell lines under the same conditions. […] The phototoxicity index (PI), defined as the ratio of the dark EC50 to the light EC50, was also calculated and represents the amplification of TLD1433 activity with a light trigger. […]
At day 0, cells were detached using 1mL of trypsin, resuspended in 4 mL of media and transferred to a 15 mL corning falcon tube. Cells were counted using trypan blue and BioRad® TC20™ automated cell counter (Figure 11). Dilutions of 6000 (CRMM1), 6000 (CRMM2), 8000 (CM2005.1), 6000 (OMM1), 6000 (OMM2.5), 6000 (MEL270) 8000 (A431), and 4000 (A375) cells/well were calculated from each cell suspension at a final volume of 6 mL using the following formula: Vc=(Vt×10C)/Lc where Vt = total volume of solution, C = number of cells per well/per 100 μL and Lc = live cells count (cells/mL). […]

Cc1ccnc(-c2cc(C)ccn2)c1.Cc1ccnc(-c2cc(C)ccn2)c1.[Cl-].[Cl-].[Ru+2].c1csc(-c2ccc(-c3ccc(-c4nc5c6cccnc6c6ncccc6c5[nH]4)s3)s2)c1 [TLD1433]
EC50 ([1]; CM2005.1, dark, 24 h treatment, SRB, read-out: EC50, dark): 1100 nM
EC50 ([1]; CM2005.1, green light 520 nm, 15 min, 21 mW/cm^2, 19 J.cm^−2, DLI 24 h, read-out: EC50,light): 5.8 nM
PI (photo index) ([1]; CM2005.1, ratio of dark and light EC50, 19 J.cm^−2 green light): 190
PI (CM cells): > 140
